Reference: publication PMC8746858 (Molecules, 2021)
In brackets after ≈: the same amount, converted by molar mass. Read-outs that look alike come from different tables or passages of the source.

What was measured:
[1] = system: IL-6; assay: IL-6 ELISA in supernatant of LPS-stimulated HaCaT cells; type: cell-based, human; conditions: 12 h pretreatment then LPS 12 h
Method: HaCaT cells were seeded in a 24-well plate at a density of 5 × 10^4 cells/well and maintained in DMEM high glucose with 10% FBS until an 80% confluent monolayer was reached. […] Control experiments with LPS-treated cells only were conducted. Controls with cells treated with neither compounds nor LPS were also performed. After that, the cell culture supernatant was collected, and the IL-6 cytokine was measured using an ELISA kit.

[2] = system: fibroblasts (NIH/3T3 cells); assay: cells
Method: (§1) Finally, control experiments with non-treated cells were performed.
The effect of the compounds on the viability of murine 3T3 fibroblasts was estimated using NRU assay. After the incubation time (24 h) cells, media were removed, then to each well we added 100 µL of medium containing neutral red (50 µg/mL). […] The plates were shaken for 10 min at room temperature. Then, the absorption at 540 nm was measured using a microplate reader (Biosan). The results were calculated for each sample concentration as a percentage of medium control. The values are presented as mean ± standard deviation of three independent experiments.

[3] = Solubility in water, HPLC of saturated solutions
Method: Then, the obtained saturated solutions were diluted 100 times and analyzed. […] A mixture of 50% acetonitrile and 50% water was used as the mobile phase. The flow rate was 1 cm^3·min^−1. The column temperature was 30 °C. A Luna® Omega 3 µm Polar C18 100 Å column with dimensions of 150 × 4.6 mm was used. The injection volume for these samples was 50 mm^3. Each measurement was performed in triplicate, and the results were averaged.

[4] = TG, air atmosphere, 10 °C·min^−1
[5] = Solubility in typical solvents, modified Vogel method; conditions: 25 °C; for Solubility in Water (63.1): ET(30) in parentheses
Description: For this purpose, dimethyl sulfoxide, ethanol, chloroform, ethyl acetate, diethyl ether, toluene, and n-hexane were used as solvents.

[6] = system: human keratinocytes (HaCaT cells); assay: MTT viability assay; conditions: for Viability of HaCaT after 48 h Treatment with 0.4 mM IL or SA: calculated as percentage of medium control, in %; for IC50: HaCaT, 24 h
Method: as §1
(§2) We applied an assay based on the reduction of methyl thiazol tetrazolium bromide (MTT) to assess the effect of the compounds on the viability of HaCaT cells. […] After that, the cells were lysed with a solution of DMSO:ethanol (1:1 v/v). The absorbance of the reduced formazan dye product was read at 560 nm in a microplate reader (Biosan). The results were calculated for each sample concentration as a percentage of medium control. The values are presented as mean ± standard deviation of three independent experiments.

[7] = MTT viability assay; conditions: human, HaCaT keratinocytes
Method: as §1, §2

[8] = NIH/3T3, 24 h, neutral red uptake
[9] = read-out: IC50 (in mM), NIH/3T3, 24 h, neutral red uptake
[10] = the two tested concentrations (1 and 10 µM)

Structure (SMILES)	IC50 [2, 8] [mg/L]	IC50 [2, 9] [mM]	Solubility in Water at 25 °C ([3]; g of compound per dm^3) [g·dm^−3]	Tonset, the onset of the thermal degradation [4] [°C]	Solubility in Chloroform (39.1) [5]	Solubility in DMSO (45.1) [5]	Solubility in Diethyl ether (34.5) [5]	Solubility in Ethanol (51.9) [5]	Solubility in Ethyl Acetate (38.1) [5]	Solubility in Toluene (33.9) [5]	Solubility in n-Hexane (31.0) [5]	Solubility in Water (63.1) [5]	Viability of HaCaT after 48 h Treatment with 0.4 mM IL or SA [6]	IC50 ([6]; MTT) [mg/L]	IC50 ([6]; read-out: IC50 (in mM), MTT) [mM]	further results
CCOC(=O)[C@@H](N)CC(C)C.O=C(O)c1ccccc1O [[LeuOEt][SA], L-leucine ethyl ester salicylate]	894 ± 12	~3														Level of IL-6 in LPS-stimulated HaCaT ([1]; 1 µM): no effect or negligible inhibition of the IL-6 production
CCOC(=O)[C@@H](N)C(C)C.O=C(O)c1ccccc1O [[ValOEt][SA], L-valine ethyl ester salicylate]	700 ± 8	~2.5	26.070 ± 0.026	157.6	+ (soluble >100 mg·cm^−3)	+ (soluble >100 mg·cm^−3)	+ (soluble >100 mg·cm^−3)	+ (soluble >100 mg·cm^−3)	+ (soluble >100 mg·cm^−3)	+ (soluble >100 mg·cm^−3)	− (insoluble < 33 mg·cm^−3)	+/− (partially soluble 33–100 mg·cm^−3)	74 ± 2	600 ± 10	~2.1	Level of IL-6 in LPS-stimulated HaCaT [1, 10]: comparable to those produced by 1 µM SA
CCOC(=O)[C@@H](N)Cc1ccccc1.O=C(O)c1ccccc1O [[PheOEt][SA], L-phenylalanine ethyl ester salicylate]	1062 ± 15	~3.2	9.732 ± 0.010	181.1	+ (soluble >100 mg·cm^−3)	+ (soluble >100 mg·cm^−3)	+ (soluble >100 mg·cm^−3)	+/− (partially soluble 33–100 mg·cm^−3)	+/− (partially soluble 33–100 mg·cm^−3)	− (insoluble < 33 mg·cm^−3)	− (insoluble < 33 mg·cm^−3)	− (insoluble < 33 mg·cm^−3)	105 ± 4	2200 ± 150	~6.6	Level of IL-6 in LPS-stimulated HaCaT [1, 10]: comparable to those produced by 1 µM SA
CCCOC(=O)[C@@H](N)C(C)C.O=C(O)c1ccccc1O [[ValOPr][SA], L-valine propyl ester salicylate]	1310 ± 17		21.789 ± 0.024	177.9	+ (soluble >100 mg·cm^−3)	+ (soluble >100 mg·cm^−3)	+ (soluble >100 mg·cm^−3)	+ (soluble >100 mg·cm^−3)	+ (soluble >100 mg·cm^−3)	+ (soluble >100 mg·cm^−3)	− (insoluble < 33 mg·cm^−3)	+/− (partially soluble 33–100 mg·cm^−3)	74 ± 2	500 ± 50	~1.8	
CCCCOC(=O)[C@@H](N)C(C)C.O=C(O)c1ccccc1O [[ValOBu][SA], L-valine butyl ester salicylate]	309 ± 9	~1	14.490 ± 0.014	171.8	+ (soluble >100 mg·cm^−3)	+ (soluble >100 mg·cm^−3)	+ (soluble >100 mg·cm^−3)	+/− (partially soluble 33–100 mg·cm^−3)	+ (soluble >100 mg·cm^−3)	+ (soluble >100 mg·cm^−3)	− (insoluble < 33 mg·cm^−3)	+/− (partially soluble 33–100 mg·cm^−3)	74 ± 1	600 ± 200	~1.9	
CCCOC(=O)[C@@H](N)Cc1ccccc1.O=C(O)c1ccccc1O [[PheOPr][SA], L-phenylalanine propyl ester salicylate]	662 ± 9	~1.9	1.143 ± 0.001	185.0	+ (soluble >100 mg·cm^−3)	+ (soluble >100 mg·cm^−3)	+ (soluble >100 mg·cm^−3)	+/− (partially soluble 33–100 mg·cm^−3)	+/− (partially soluble 33–100 mg·cm^−3)	− (insoluble < 33 mg·cm^−3)	− (insoluble < 33 mg·cm^−3)	− (insoluble < 33 mg·cm^−3)	93 ± 4	650 ± 100	~1.9	Level of IL-6 in LPS-stimulated HaCaT ([1]; 1 µM): completely protected from inflammation; Level of IL-6 in LPS-stimulated HaCaT ([1]; 10 μM): no effect or negligible inhibition of the IL-6 production
O=C(O)c1ccccc1O [SA, Salicylic acid, reference compound]				171.3	+/− (partially soluble 33–100 mg·cm^−3)	+ (soluble >100 mg·cm^−3)	+ (soluble >100 mg·cm^−3)	+ (soluble >100 mg·cm^−3)	+ (soluble >100 mg·cm^−3)	+/− (partially soluble 33–100 mg·cm^−3)	− (insoluble < 33 mg·cm^−3)	+/− (partially soluble 33–100 mg·cm^−3)				Solubility in Water at 25 °C ([3]; amount of active compound (SA) per dm^3): 3.852 ± 0.004 g SA·dm^−3; solubility ([3]; water): 3.852 ± 0.004 mg/mL (≈ 27.9 mM); viability at 48 h, 0.4 mM [7]: 71 ± 3%; IC50 ([6]; Homo sapiens): 200 ± 100 mg/L; IC50 ([6]; Homo sapiens, read-out: IC50 (in mM)): ~1.6 mM; IC50 ([2]; Mus musculus, NIH3T3, 24 h): 300 ± 6 mg/L; IC50 ([2]; Mus musculus, NIH3T3, 24 h, read-out: IC50 (in mM)): ~2.2 mM
CC(C)OC(=O)[C@@H](N)C(C)C.O=C(O)c1ccccc1O [[ValOiPr][SA], L-valine isopropyl ester salicylate]	658 ± 7	~2.2	18.458 ± 0.018	163.1	+ (soluble >100 mg·cm^−3)	+ (soluble >100 mg·cm^−3)	+/− (partially soluble 33–100 mg·cm^−3)	+ (soluble >100 mg·cm^−3)	+/− (partially soluble 33–100 mg·cm^−3)	+ (soluble >100 mg·cm^−3)	− (insoluble < 33 mg·cm^−3)	+/− (partially soluble 33–100 mg·cm^−3)	66 ± 2	900 ± 50	~3.1	Level of IL-6 in LPS-stimulated HaCaT ([1]; 10 μM): no effect or negligible inhibition of the IL-6 production
